A word on the DC50: it is the midpoint of the concentration-degradation curve. Higher therefore signals a less potent degrader.

Structures are written as SMILES. Counter-ions that a name gives are not always drawn.

The test has as its target T1, AR protein in VCaP cells (Homo sapiens, UniProt P10275).
T1 construct: endogenous in cells; host or cells: VCaP cells
T1 sequence (P10275 1-920): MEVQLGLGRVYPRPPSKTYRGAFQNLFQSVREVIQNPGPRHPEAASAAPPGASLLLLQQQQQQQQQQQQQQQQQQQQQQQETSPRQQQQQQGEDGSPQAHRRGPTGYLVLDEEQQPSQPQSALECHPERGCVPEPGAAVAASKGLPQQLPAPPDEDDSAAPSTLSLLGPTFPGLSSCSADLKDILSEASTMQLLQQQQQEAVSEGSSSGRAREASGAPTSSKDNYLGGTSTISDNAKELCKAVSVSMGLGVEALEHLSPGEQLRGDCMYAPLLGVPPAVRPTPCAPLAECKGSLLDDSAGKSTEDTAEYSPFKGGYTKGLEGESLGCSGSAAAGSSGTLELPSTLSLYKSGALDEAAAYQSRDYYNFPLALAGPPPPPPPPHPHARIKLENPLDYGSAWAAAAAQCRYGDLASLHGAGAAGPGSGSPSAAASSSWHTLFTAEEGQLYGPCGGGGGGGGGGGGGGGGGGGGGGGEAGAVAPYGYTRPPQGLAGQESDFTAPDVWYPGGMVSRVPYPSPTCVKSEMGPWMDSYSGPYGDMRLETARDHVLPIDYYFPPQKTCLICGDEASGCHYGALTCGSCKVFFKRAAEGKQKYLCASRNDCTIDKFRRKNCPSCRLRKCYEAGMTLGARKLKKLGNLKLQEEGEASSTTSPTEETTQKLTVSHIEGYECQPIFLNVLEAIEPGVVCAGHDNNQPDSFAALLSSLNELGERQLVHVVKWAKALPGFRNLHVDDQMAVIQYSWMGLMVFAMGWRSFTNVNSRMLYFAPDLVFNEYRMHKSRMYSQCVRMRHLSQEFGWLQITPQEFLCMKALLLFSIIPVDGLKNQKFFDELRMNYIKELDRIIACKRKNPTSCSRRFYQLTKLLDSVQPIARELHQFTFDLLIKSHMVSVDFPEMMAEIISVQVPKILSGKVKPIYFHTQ
Nature of the test: VCAP AR Degradation Assay. Format: cell-based. Particulars: 24 h, AR ELISA; for DC50: concentration at 50% of DMSO control (50% AR degradation); for Y: lowest measured AR level normalized to DMSO control. On the procedure:
VCAP AR Degradation Assay. Test compounds were pre-dispensed into a Corning CellBind 96-well clear bottom plate (Cat #3300) using an acoustic dispenser to make a 10-point concentration series at 1:3 dilution for each compound. The final top concentration of each compound was 5 μM. DMSO at a final concentration of 0.1% was used as a control. VCaP cells cultured in DMEM with 8% fetal bovine serum (FBS) were seeded at 50K cells per well in a 200 μL volume into the compound plate and incubated at 37° C. in a CO2 incubator for 24 h. The medium was carefully removed from the cells and the plate was placed on ice. One hundred μL of ice-cold 1× cell lysis buffer from Cell Signaling Technologies (Cat #9803) was added to each well of the cells and the plate was incubated at 4° C. on a shaker for 1 h. Fifteen μL of cell lysate was used for AR ELISA detection using a PathScan Total Sandwich AR ELISA kit (Cell Signaling Technology, Cat #12580). AR levels in compound-treated wells were normalized to that of DMSO control and expressed as percent of control (PoC) (y). A Four Parameter Logistic Model (Sigmoidal Dose-Response Model) was used to determine the compound's DC50, and EC50, using the following equation: y=(A+((B−A)/(1+((C/x)^D)))) • A=YMin (lowest AR level normalized to DMSO control in response to compound treatment, as determined by curve fit) • B=YMax (maximum AR level as determined by curve fit) • C=EC50 • D=Hill Slope • x=compound concentration • EC50=the concentration of compound when y=(YMax−YMin)/2 • DC50=the concentration of the compound when y=50% of DMSO control (50% AR degradation) • y=AR protein level normalized to DMSO control
The lowest measured AR level normalized to DMSO control in response to compound treatment, termed Y value, was used to characterize the compound-mediated AR degradation efficiency.
(In general: In an ELISA, binding on a coated surface is turned into a signal by an enzyme label.)

For the compound `C[C@@H]1CN(CCO[C@H]2CC[C@H](N3C(=S)N(c4ccc(C#N)c(Cl)c4)C(=O)C3(C)C)CC2)C[C@H](C)N1CC(=O)Nc1cccc(NC2CCC(=O)NC2=O)c1` (stereo partly drawn) [Cmpd 4, 2-((2R,6S)-4-(2-((trans-4-(3-(3-Chloro-4-cyanophenyl)-5,5-dimethyl-4-oxo-2-thioxoimidazolidin-1-yl)cyclohexyl)oxy)ethyl)-2,6-dimethylpiperazin-1-yl)-N-(3-((2,6-dioxopiperidin-3-yl)amino)phenyl)acetamide hydrochloride], the 50% degradation concentration (DC50) is at most 5 nM and the Y result is on record as “** (15%<Y≤20%)”.

Take `CC1(C)C(=O)N(c2ccc(C#N)c(C(F)(F)F)c2)C(=S)N1[C@H]1CC[C@H](OCCN2CCN(CC(=O)Nc3cc(C#N)cc(NC4CCC(=O)NC4=O)c3)[C@@H](C(F)(F)F)C2)CC1` (stereo partly drawn) [Cmpd 34, 2-((R)-4-(2-(((trans)-4-(3-(4-Cyano-3-(trifluoromethyl)phenyl)-5,5-dimethyl-4-oxo-2-thioxoimidazolidin-1-yl)cyclohexyl)oxy)ethyl)-2-(trifluoromethyl)piperazin-1-yl)-N-(3-cyano-5-((2,6-dioxopiperidin-3-yl)amino)phenyl)acetamide]: the DC50 lay in the range of 5 to 10 nM and the Y entry is “*** (25%<Y<50%)”.

On to `C[C@@H]1CN(CCO[C@H]2CC[C@H](N3C(=S)N(c4ccc(C#N)c(S(F)(F)(F)(F)F)c4)C(=O)C3(C)C)CC2)C[C@H](C)N1CC(=O)Nc1cccc(NC2CCC(=O)NC2=O)c1` (stereo partly drawn) [Cmpd 7, 2-((2R,6S)-4-(2-((trans-4-(3-(4-Cyano-3-(pentafluoro-λ^6-sulfaneyl)phenyl)-5,5-dimethyl-4-oxo-2-thioxoimidazolidin-1-yl)cyclohexyl)oxy)ethyl)-2,6-dimethylpiperazin-1-yl)-N-(3-((2,6-dioxopiperidin-3-yl)amino)phenyl)acetamide hydrochloride], for which the 50% degradation concentration (DC50) lay in the range of 10 to 100 nM and the Y result is given as “*** (25%<Y<50%)”.

`C[C@@H]1CN(CCCO[C@H]2CC[C@H](N3C(=S)N(c4ccc(C#N)c(C(F)(F)F)c4)C(=O)C3(C)C)CC2)C[C@H](C)N1CC(=O)Nc1cccc(NC2CCC(=O)NC2=O)c1` (stereo partly drawn) [Cmpd 12, 2-((2R,6S)-4-(3-((trans-4-(3-(4-Cyano-3-(trifluoromethyl)phenyl)-5,5-dimethyl-4-oxo-2-thioxoimidazolidin-1-yl)cyclohexyl)oxy)propyl)-2,6-dimethylpiperazin-1-yl)-N-(3-((2,6-dioxopiperidin-3-yl)amino)phenyl)acetamide hydrochloride]: the DC50 was in the range of 5 to 10 nM and the Y result is “*** (25%<Y<50%)”.

Consider `C[C@@H]1C[C@H](OCCO[C@H]2CC[C@H](N3C(=S)N(c4cnc(C#N)c(C(F)(F)F)c4)C(=O)C3(C)C)CC2)C[C@H](C)N1CC(=O)Nc1cccc(NC2CCC(=O)NC2=O)c1` (stereo partly drawn) [Cmpd 45, 2-((2R,4r,6S)-4-(2-(((trans)-4-(3-(6-Cyano-5-(trifluoromethyl)pyridin-3-yl)-5,5-dimethyl-4-oxo-2-thioxoimidazolidin-1-yl)cyclohexyl)oxy)ethoxy)-2,6-dimethylpiperidin-1-yl)-N-(3-((2,6-dioxopiperidin-3-yl)amino)phenyl)acetamide], for which the DC50 was at most 5 nM and the Y result is “** (15%<Y≤20%)”.

As to `CC1(C)C(=O)N(c2ccc(C#N)c(C(F)(F)F)c2)C(=S)N1[C@H]1CC[C@H](OCCC2CCN(CC(=O)Nc3cccc(NC4CCC(=O)NC4=O)c3)CC2(F)F)CC1` (stereo partly drawn) [Cmpd 44, 2-(4-(2-(((trans)-4-(3-(4-Cyano-3-(trifluoromethyl)phenyl)-5,5-dimethyl-4-oxo-2-thioxoimidazolidin-1-yl)cyclohexyl)oxy)ethyl)-3,3-difluoropiperidin-1-yl)-N-(3-((2,6-dioxopiperidin-3-yl)amino)phenyl)acetamide], the DC50 lay in the range of 5 to 10 nM and the Y result is “* (0<Y≤15%)”.

As to `CC1(C)C(=O)N(c2cnc(C#N)c(C(F)(F)F)c2)C(=S)N1[C@H]1CC[C@H](OCCN2CCN(CC(=O)Nc3cccc(N[C@H]4CCC(=O)NC4=O)c3)[C@@H](C(F)(F)F)C2)CC1` [Cmpd 41, 2-((R)-4-(2-(((trans)-4-(3-(6-Cyano-5-(trifluoromethyl)pyridin-3-yl)-5,5-dimethyl-4-oxo-2-thioxoimidazolidin-1-yl)cyclohexyl)oxy)ethyl)-2-(trifluoromethyl)piperazin-1-yl)-N-(3-(((S)-2,6-dioxopiperidin-3-yl)amino)phenyl)acetamide hydrochloride], the DC50 is at most 5 nM and the Y result was “* (0<Y≤15%)”.

As to `C[C@@H]1CN(CCC[C@H]2CC[C@H](N3C(=S)N(c4ccc(C#N)c(C(F)(F)F)c4)C(=O)C3(C)C)CC2)C[C@H](C)N1CC(=O)Nc1cccc(NC2CCC(=O)NC2=O)c1` (stereo partly drawn) [Cmpd 2, 2-((2R,6S)-4-(3-(trans-4-(3-(4-Cyano-3-(trifluoromethyl)phenyl)-5,5-dimethyl-4-oxo-2-thioxoimidazolidin-1-yl)cyclohexyl)propyl)-2,6-dimethylpiperazin-1-yl)-N-(3-((2,6-dioxopiperidin-3-yl)amino)phenyl)acetamide], the 50% degradation concentration (DC50) is 10 to 100 nM and the Y result is “* (0<Y≤15%)”.

On to `C[C@@H]1CN(CCC[C@H]2CC[C@H](N3C(=S)N(c4cnc(C#N)c(Cl)c4)C(=O)C3(C)C)CC2)C[C@H](C)N1CC(=O)Nc1cccc(NC2CCC(=O)NC2=O)c1` (stereo partly drawn) [Cmpd 13, 2-((2R,6S)-4-(3-(trans-4-(3-(5-Chloro-6-cyanopyridin-3-yl)-5,5-dimethyl-4-oxo-2-thioxoimidazolidin-1-yl)cyclohexyl)propyl)-2,6-dimethylpiperazin-1-yl)-N-(3-((2,6-dioxopiperidin-3-yl)amino)phenyl)acetamide hydrochloride], for which the half-maximal degradation concentration (DC50) fell in the range of 5 to 10 nM and the Y result is recorded as “*** (25%<Y<50%)”.

Take `CC1(C)C(=O)N(c2cnc(C#N)c(C(F)(F)F)c2)C(=S)N1[C@H]1CC[C@H](OCCCN2CCN(CC(=O)Nc3cccc(NC4CCC(=O)NC4=O)c3)[C@@H](C(F)(F)F)C2)CC1` (stereo partly drawn) [Cmpd 28, 2-((R)-4-(3-(((trans)-4-(3-(6-cyano-5-(trifluoromethyl)pyridin-3-yl)-5,5-dimethyl-4-oxo-2-thioxoimidazolidin-1-yl)cyclohexyl)oxy)propyl)-2-(trifluoromethyl)piperazin-1-yl)-N-(3-((2,6-dioxopiperidin-3-yl)amino)phenyl)acetamide]: the DC50 was at most 5 nM and the Y entry was “* (0<Y≤15%)”.

On to `C[C@@H]1C[C@H](OCC[C@H]2CC[C@H](N3C(=S)N(c4cnc(C#N)c(C(F)(F)F)c4)C(=O)C3(C)C)CC2)C[C@H](C)N1CC(=O)Nc1cccc(NC2CCC(=O)NC2=O)c1` (stereo partly drawn) [Cmpd 35, 2-((2R,4r,6S)-4-(2-((trans)-4-(3-(6-Cyano-5-(trifluoromethyl)pyridin-3-yl)-5,5-dimethyl-4-oxo-2-thioxoimidazolidin-1-yl)cyclohexyl)ethoxy)-2,6-dimethylpiperidin-1-yl)-N-(3-((2,6-dioxopiperidin-3-yl)amino)phenyl)acetamide hydrochloride], for which the 50% degradation concentration (DC50) lay in the range of 10 to 100 nM and the Y result is listed as “* (0<Y≤15%)”.

These data come from patent US12103920B2, “Cereblon binding compounds, compositions thereof, and methods of treatment therewith” (Celgene Corporation, priority 2020, dated 2024).
